From patent publication US10975056B2 (GlaxoSmithKline Intellectual Property Development Limited, priority 2016, dated 2021)
Several values for one entry are separate records, joined by “and”; a condition that tells them apart may be missing. Equal entries are not always repeated. Structures can show the parent of a compound that is named as a salt. Where two headings read alike, the source gives them in different places.

Experiments:
DNMT1 = DNMT1 (Homo sapiens, UniProt P26358); assay: DNMT1 biochemical activity, breaklight assay and/or SPA assay
[1] = tested on: erythroid progenitor cells (EPCs); assay: Fetal hemoglobin (HbF) ELISA in day 7 erythroid progenitor cells; assay type: cell-based, human; conditions: Homo sapiens, Erythroid progenitor cell, HbF ELISA, day 7 EPCs, 5 days; read-out: EPC ELISA (pEC50 category) (converted);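 further: for fetal hemoglobin induction normalized to vehicle-treated cells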
How it was run: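 Day 7 EPCs from human bone marrow CD34+ cells were plated at 1,000 cells/well in media with 3 U/mL rhEPO. They were exposed to a 22-point dilution ([…]) for 5 days at 37 °C. Lysate HbF was measured by sandwich ELISA (OD450) and normalized to DMSO control wells.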

[2] = binned activity in either the breaklight or the SPA assay, read-out: DNMT1 BioChemical (pIC50 category) (converted)
[3] = binned activity in either the breaklight or the SPA assay
[4] = breaklight assay and/or SPA assay, repeated experimental runs
[5] = breaklight assay and/or SPA assay, repeated experimental runs, read-out: average pIC50 against DNMT1 (converted)

Sequence of DNMT1 (P26358 whole entry, looked up): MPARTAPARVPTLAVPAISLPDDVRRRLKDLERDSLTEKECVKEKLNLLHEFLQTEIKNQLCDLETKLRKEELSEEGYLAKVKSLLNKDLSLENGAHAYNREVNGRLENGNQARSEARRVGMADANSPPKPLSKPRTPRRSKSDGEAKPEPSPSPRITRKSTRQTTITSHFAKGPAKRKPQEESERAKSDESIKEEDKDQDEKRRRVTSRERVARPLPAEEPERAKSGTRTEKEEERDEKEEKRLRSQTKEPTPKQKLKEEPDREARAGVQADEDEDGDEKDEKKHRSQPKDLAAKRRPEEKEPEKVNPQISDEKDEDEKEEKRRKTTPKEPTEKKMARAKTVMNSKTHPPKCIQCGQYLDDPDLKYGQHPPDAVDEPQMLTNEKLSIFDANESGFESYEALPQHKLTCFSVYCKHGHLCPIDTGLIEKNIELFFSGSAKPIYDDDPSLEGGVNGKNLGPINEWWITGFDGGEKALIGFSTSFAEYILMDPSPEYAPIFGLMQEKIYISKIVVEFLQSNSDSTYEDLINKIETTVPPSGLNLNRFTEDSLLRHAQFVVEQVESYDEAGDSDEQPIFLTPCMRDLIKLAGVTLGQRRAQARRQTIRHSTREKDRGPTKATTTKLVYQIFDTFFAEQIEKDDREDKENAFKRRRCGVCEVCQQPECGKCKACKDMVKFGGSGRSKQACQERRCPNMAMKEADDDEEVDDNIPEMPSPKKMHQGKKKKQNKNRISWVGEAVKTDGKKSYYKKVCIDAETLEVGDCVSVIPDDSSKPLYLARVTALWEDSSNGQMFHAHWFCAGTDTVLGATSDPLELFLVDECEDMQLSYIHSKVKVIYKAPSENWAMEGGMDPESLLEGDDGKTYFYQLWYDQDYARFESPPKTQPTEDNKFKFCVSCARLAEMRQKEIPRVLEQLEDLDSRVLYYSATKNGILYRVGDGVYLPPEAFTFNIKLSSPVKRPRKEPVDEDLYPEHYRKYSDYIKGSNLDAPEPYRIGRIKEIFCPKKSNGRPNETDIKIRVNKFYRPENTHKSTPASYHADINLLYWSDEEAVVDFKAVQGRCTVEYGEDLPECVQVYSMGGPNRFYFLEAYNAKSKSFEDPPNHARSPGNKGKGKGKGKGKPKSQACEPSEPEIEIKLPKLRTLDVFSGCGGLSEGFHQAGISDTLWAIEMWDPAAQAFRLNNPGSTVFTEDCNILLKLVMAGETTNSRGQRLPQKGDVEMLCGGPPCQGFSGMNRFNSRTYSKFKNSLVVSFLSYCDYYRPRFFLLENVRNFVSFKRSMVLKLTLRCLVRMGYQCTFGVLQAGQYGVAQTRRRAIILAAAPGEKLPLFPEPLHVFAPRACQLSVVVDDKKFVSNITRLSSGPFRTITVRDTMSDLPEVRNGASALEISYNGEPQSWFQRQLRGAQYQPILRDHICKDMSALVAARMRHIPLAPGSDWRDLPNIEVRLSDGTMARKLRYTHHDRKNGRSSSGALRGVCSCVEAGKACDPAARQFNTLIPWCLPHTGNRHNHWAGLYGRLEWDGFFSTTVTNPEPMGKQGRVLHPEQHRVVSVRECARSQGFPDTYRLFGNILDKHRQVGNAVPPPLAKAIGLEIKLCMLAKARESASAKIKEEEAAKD

Row | Structure (SMILES) | IC50 (DNMT1; [2]) [µM] | EC50 [1] [µM] | DNMT1 BioChemical (pIC50 category) (DNMT1; [3]) | average pIC50 against DNMT1 (DNMT1; [4]) | IC50 (DNMT1; [5])
1 | CCc1c(C#N)c(SC(C(N)=O)c2ccccc2)nc(N2CCC(=O)N(C)CC2)c1C#N (stereo not drawn) [Example 111, 2-{[3,5-Dicyano-4-ethyl-6-(4-methyl-5-oxo-1,4-diazepan-1-yl)pyridin-2-yl]sulfanyl}-2-phenylacetamide] | 0.316 to 1 | < 0.316 | – | – | –
2 | N#Cc1c(SC(C(N)=O)c2ccccc2)nc(N2CC[C@H](N)C2)c(C#N)c1C1CC1 (stereo partly drawn) [Example 115, 2-({6-[(3S)-3-Aminopyrrolidin-1-yl]-3,5-dicyano-4-cyclopropylpyridin-2-yl}sulfanyl)-2-phenylacetamide] | – | < 0.316 | D (Category D: ≥6.5) | > 6.5 | 0.2 µM
3 | CCc1c(C#N)c(SC(C(N)=O)c2ccccc2)nc(N2CCC3(CCCNC3)CC2)c1C#N (stereo not drawn) [Example 116, 2-((3,5-Dicyano-4-ethyl-6-(2,9-diazaspiro[5.5]undecan-9-yl)pyridin-2-yl)thio)-2-phenylacetamide] | – | < 0.316 | D (Category D: ≥6.5) | – | –
4 | CCc1c(C#N)c(SC(C(N)=O)c2ccccc2)nc(N2CCCN3CCCC3C2)c1C#N (stereo not drawn) [Example 117, 2-((3,5-Dicyano-4-ethyl-6-(hexahydro-1H-pyrrolo[1,2-a][1,4]diazepin-2(3H)-yl)pyridin-2-yl)thio)-2-phenylacetamide] | 0.316 to 1 | < 0.316 | – | – | 0.316 to 1 µM
5 | CCc1c(C#N)c(SC(C(N)=O)c2ccccc2)nc(N2CCC3(CCCN(CC4CC4)C3)CC2)c1C#N (stereo not drawn) [Example 119, 2-((3,5-Dicyano-6-(2-(cyclopropylmethyl)-2,9-diazaspiro[5.5]undecan-9-yl)-4-ethylpyridin-2-yl)thio)-2-phenylacetamide hydrochloride] | 0.316 to 1 | < 0.316 | – | – | 0.316 to 1 µM and 0.398 µM
6 | CCc1c(C#N)c(SC(C(N)=O)c2ccccc2)nc(N2CCN(CCCN(C)C)CC2)c1C#N (stereo not drawn) [Example 120] | 0.316 to 1 | < 0.316 | – | – | 0.316 to 1 µM
7 | CCc1c(C#N)c(SC(C(N)=O)c2ccccc2)nc(N2CCC(C3CCNC3)CC2)c1C#N (stereo not drawn) [Example 121, 2-((3,5-Dicyano-4-ethyl-6-(4-(pyrrolidin-3-yl)piperidin-1-yl)pyridin-2-yl)thio)-2-phenylacetamide; 2,2,2-trifluoroacetic acid] | – | 0.316 to 1 | D (Category D: ≥6.5) | > 6.5 | –
8 | N#Cc1c(SC(C(N)=O)c2ccccc2)nc(N2CCN(CCCN)CC2)c(C#N)c1C1CC1 (stereo not drawn) [Example 124, 2-((6-(4-(3-Aminopropyl)piperazin-1-yl)-3,5-dicyano-4-cyclopropylpyridin-2-yl)thio)-2-phenylacetamide] | 0.316 to 1 | 1 to 31.6 | – | – | –
9 | CCc1c(C#N)c(SC(C(N)=O)c2ccccc2)nc(N2CCC(F)(F)CC2)c1C#N (stereo not drawn) [Example 133, 2-((3,5-Dicyano-6-(4,4-difluoropiperidin-1-yl)-4-ethylpyridin-2-yl)thio)-2-phenylacetamide] | 1 to 31.6 | 1 to 31.6 | – | – | ≥ 1 µM
10 | CCc1c(C#N)c(S[C@@H](C(N)=O)c2ccccc2)nc(N2CC[C@@H](O)C2)c1C#N [Example 134, (R)-2-((3,5-Dicyano-4-ethyl-6-((R)-3-hydroxypyrrolidin-1-yl)pyridin-2-yl)thio)-2-phenylacetamide] | 0.316 to 1 | 1 to 31.6 | – | – | –
11 | CN1CCCN(c2nc(SC(C(N)=O)c3ccccc3)c(C#N)c(-c3ccco3)c2C#N)CC1 (stereo not drawn) [Example 135, 2-((3,5-dicyano-4-(furan-2-yl)-6-(4-methyl-1,4-diazepan-1-yl)pyridin-2-yl)thio)-2-phenylacetamide] | 0.316 to 1 | 1 to 31.6 | – | – | –
12 | CCc1c(C#N)c(SC(C(N)=O)c2ccccc2)nc(N2CCC(NC(=O)CN)CC2)c1C#N (stereo not drawn) [Example 137, 2-Amino-N-(1-(6-((2-amino-2-oxo-1-phenylethyl)thio)-3,5-dicyano-4-ethylpyridin-2-yl)piperidin-4-yl)acetamide, Trifluoroacetic Acid Salt] | – | 0.316 to 1 | D (Category D: ≥6.5) | > 6.5 | –
13 | CCc1c(C#N)c(SC(C(N)=O)c2ccccc2)nc(N2CCN(C(=O)C3(N)COC3)CC2)c1C#N (stereo not drawn) [Example 139, 2-((6-(4-(3-Aminooxetane-3-carbonyl)piperazin-1-yl)-3,5-dicyano-4-ethylpyridin-2-yl)thio)-2-phenylacetamide, Formic Acid Salt] | – | 0.316 to 1 | D (Category D: ≥6.5) | – | –
14 | CCc1c(C#N)c(SC(C(N)=O)c2ccccc2)nc(N2CCC(NC(=O)C3(N)CCOCC3)CC2)c1C#N (stereo not drawn) [Example 140, 4-Amino-N-(1-(6-((2-amino-2-oxo-1-phenylethyl)thio)-3,5-dicyano-4-ethylpyridin-2-yl)piperidin-4-yl)tetrahydro-2H-pyran-4-carboxamide, Trifluoroacetic Acid Salt] | – | < 0.316 | D (Category D: ≥6.5) | – | –
15 | CCc1c(C#N)c(SC(C(N)=O)c2ccccc2)nc(N2CCN(C(=O)C3(N)CCOCC3)CC2)c1C#N (stereo not drawn) [Example 141, 2-((6-(4-(4-Aminotetrahydro-2H-pyran-4-carbonyl)piperazin-1-yl)-3,5-dicyano-4-ethylpyridin-2-yl)thio)-2-phenylacetamide, Trifluoroacetic Acid Salt] | – | < 0.316 | D (Category D: ≥6.5) | – | –
16 | COc1c(C#N)c(SC(C(N)=O)c2ccccc2)nc(N2CCCN(CCO)CC2)c1C#N (stereo not drawn) [Example 142, 2-((3,5-Dicyano-6-(4-(2-hydroxyethyl)-1,4-diazepan-1-yl)-4-methoxypyridin-2-yl)thio)-2-phenylacetamide] | – | 0.316 to 1 | D (Category D: ≥6.5) | – | –
17 | CCc1c(C#N)c(SC(C(N)=O)c2ccccc2)nc(N(C)CCN)c1C#N (stereo not drawn) [Example 144, 2-((6-((2-Aminoethyl)(methyl)amino)-3,5-dicyano-4-ethylpyridin-2-yl)thio)-2-phenylacetamide, Trifluoroacetic Acid Salt] | – | < 0.316 | D (Category D: ≥6.5) | – | –
18 | CCc1c(C#N)c(SC(C(N)=O)c2ccccc2)nc(N2CC(O)C2)c1C#N (stereo not drawn) [Example 146, 2-((3,5-Dicyano-4-ethyl-6-(3-hydroxyazetidin-1-yl)pyridin-2-yl)thio)-2-phenylacetamide] | – | 0.316 to 1 | D (Category D: ≥6.5) | – | –
19 | CCc1c(C#N)c(SC(C(N)=O)c2ccccc2)nc(N(C)CCO)c1C#N (stereo not drawn) [Example 147, 2-(3,5-Dicyano-4-ethyl-6-((2-hydroxyethyl)(methyl)amino)pyridin-2-ylthio)-2-phenylacetamide] | 0.316 to 1 | 0.316 to 1 | – | – | –
20 | CCc1c(C#N)c(SC(C(N)=O)c2ccccc2)nc(N2CCC(NC(=O)C(C)(C)N)CC2)c1C#N (stereo not drawn) [Example 148] | – | < 0.316 | D (Category D: ≥6.5) | > 6.5 | –
21 | CCc1c(C#N)c(SC(C(N)=O)c2ccccc2)nc(N2CCC(OCCN)CC2)c1C#N (stereo not drawn) [Example 149, 2-((6-(4-(2-Aminoethoxy)piperidin-1-yl)-3,5-dicyano-4-ethylpyridin-2-yl)thio)-2-phenylacetamide, Trifluoroacetic Acid Salt] | – | < 0.316 | D (Category D: ≥6.5) | > 6.5 | –
22 | CCc1c(C#N)c(SC(C(N)=O)c2ccccc2)nc(N2CCC(OP(=O)(O)O)C2)c1C#N (stereo not drawn) [Example 150, 1-(6-((2-Amino-2-oxo-1-phenylethyl)thio)-3,5-dicyano-4-ethylpyridin-2-yl)pyrrolidin-3-yl dihydrogen phosphate] | 1 to 31.6 | > 31.6 | – | – | –
23 | CCc1c(C#N)c(SC(C(N)=O)c2ccccc2)nc(N(C)CCOP(=O)(O)O)c1C#N (stereo not drawn) [Example 151, 2-((6-((2-Amino-2-oxo-1-phenylethyl)thio)-3,5-dicyano-4-ethylpyridin-2-yl)(methyl)amino)ethyl dihydrocien phosphate] | 1 to 31.6 | > 31.6 | – | – | –
24 | CCc1c(C#N)c(SC(C(N)=O)c2ccccc2)nc(N2CC(OP(=O)(O)O)C2)c1C#N (stereo not drawn) [Example 152, 1-(6-((2-Amino-2-oxo-1-phenylethyl)thio)-3,5-dicyano-4-ethylpyridin-2-yl)azetidin-3-yl dihydrogen phosphate] | 1 to 31.6 | 1 to 31.6 | – | – | –
25 | CCc1c(C#N)c(SC(C(N)=O)c2ccccc2)nc(N2CCC(OCCOC(=O)[C@@H](N)C(C)C)CC2)c1C#N (stereo partly drawn) [Example 153, (2S)-2-((1-(6-((2-Amino-2-oxo-1-phenylethyl)thio)-3,5-dicyano-4-ethylpyridin-2-yl)piperidin-4-yl)oxy)ethyl 2-amino-3-methylbutanoate] | – | 0.316 to 1 | D (Category D: ≥6.5) | – | –
26 | CCc1c(C#N)c(SC(C(N)=O)c2ccccc2)nc(N2CCC(OCCOP(=O)(O)O)CC2)c1C#N (stereo not drawn) [Example 154, 2-((1-(6-((2-Amino-2-oxo-1-phenylethyl)thio)-3,5-dicyano-4-ethylpyridin-2-yl)piperidin-4-epoxy)ethyldihydrogen phosphate] | 1 to 31.6 | 1 to 31.6 | – | – | –
27 | CCc1c(C#N)c(SC(C(N)=O)c2ccccc2)nc(N2CCC(OP(=O)(O)O)CC2)c1C#N (stereo not drawn) [Example 155, 1-(6-((2-Amino-2-oxo-1-phenylethyl)thio)-3,5-dicyano-4-ethylpyridin-2-yl)piperidin-4-yl dihydrogen phosphate] | 1 to 31.6 | > 31.6 | – | – | –
28 | CCc1c(C#N)c(SCc2ccc(CNC(C)=O)cc2)nc(N2CCC(N)CC2)c1C#N [Example 156, N-(4-(((6-(4-Aminopiperidin-1-yl)-3,5-dicyano-4-ethylpyridin-2-yl)thio)methyl)benzyl)acetamide, Trifluoroacetic Acid Salt] | – | 0.316 to 1 | D (Category D: ≥6.5) | – | –
